# Experimental data: patent publication US20250127913A1, “BIFUNCTIONAL FOLATE RECEPTOR BINDING COMPOUNDS” (LYCIA THERAPEUTICS, INC., priority 2021, published 2025)
# Legend:
# [1] = target: T1, folate receptor beta (Homo sapiens (Human), UniProt P14207); assay: Folate receptor binding assay (fluorescence polarization); details: 2.5 nM folate receptor beta, 2 nM FR-Cy probe, 2 hr incubation; read-out: FOLR2-FP
# Procedure: Folate receptor binding was measured in black 96-well plates using a fluorescence polarization assay. A fluorescent probe consisting of a folate analog linked to Cy5 (FR-Cy) was custom synthesized.
# Test compounds were resuspended in DMSO and 3-fold serial dilutions were made from 300-0.015 μM (100× final concentrations). Binding reactions were conducted in 200 μl final volume in 20 mM Hepes (pH 7.5) 250 mM NaCl 0.0150 Tween-20 1% DMSO with 2.5 nM folate receptor beta (Acro Biosystems) and 2 nM probe. Fluorescence polarization was measured using λex=620 nm, λem=688 nm on an Envision plate reader (Perkin Elmer) after 2 hr incubation time. Dose responses were conducted in duplicate and normalized to the response with DMSO (high) and 1 μM folic acid (low) on each plate. IC50 values were determined by fitting to 4-parameter curves in GraphPad Prism.
# [2] = target: TNFα (Homo sapiens (Human), UniProt P01375); assay: TNFα binding assay (time-resolved FRET, biotinylated TNFα); details: 1 nM biotinylated TNFα, 80 nM probe, 16 hr incubation; read-out: TNF-HTRF-biotin
# Sequence of TNFα (P01375 77-233): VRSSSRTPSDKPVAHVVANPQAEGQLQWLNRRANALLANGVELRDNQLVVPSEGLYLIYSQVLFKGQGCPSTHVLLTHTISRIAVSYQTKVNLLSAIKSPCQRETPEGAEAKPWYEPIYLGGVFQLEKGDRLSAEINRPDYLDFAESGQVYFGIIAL
# Procedure: TNFα binding was measured in black 96-well plates using a time-resolved FRET assay using a previously described fluorescence acceptor TNFα probe (Xiao et al J. Med. Chem. 2020). Biotinylated TNFα was purchased from Acro Biosystems. Binding reactions were conducted in 20 mM Hepes (pH 7.5) 10 mM MgCl2 0.015% Tween-20 0.05 mg/ml BSA 2% DMSO with 1 nM TNFα 0.5 nM Streptavidin-Tb and 80 nM probe. Test compounds were resuspended in DMSO and 3-fold serial dilutions were made at 100× final concentrations. Fluorescence was measured using λex=340 nm, λem=490, 520 nm on an SpectraMax M5e plate reader (Molecular Devices) after 16 hr incubation time. Dose responses were conducted in duplicate and normalized to the response with DMSO (high) and 100 nM (R)-3-(1-((3-chloro-7-fluoro-6-(2-(2-hydroxypropan-2-yl)pyrimidin-5-yl)-2-methyl-1,5-naphthyridin-4-yl)amino)ethyl)-4-fluorobenzonitrile (low) on each plate. IC50 values were determined by fitting to 4-parameter curves in GraphPad Prism.
# [3] = target: TNFα and streptavidin immobilized FOL2R (Homo sapiens (Human), UniProt P01375+P14207); assay: Ternary complex SPR assay; type: binding; details: 10 nM compound, max response normalized to expected response; for TC 150 nM- tagless TNF Normalized: 150 nM untagged TNF; for TC 300 nM- tagless TNF Normalized: 300 nM untagged TNF
# Sequence of TNFα and streptavidin immobilized FOL2R (P14207 17-230): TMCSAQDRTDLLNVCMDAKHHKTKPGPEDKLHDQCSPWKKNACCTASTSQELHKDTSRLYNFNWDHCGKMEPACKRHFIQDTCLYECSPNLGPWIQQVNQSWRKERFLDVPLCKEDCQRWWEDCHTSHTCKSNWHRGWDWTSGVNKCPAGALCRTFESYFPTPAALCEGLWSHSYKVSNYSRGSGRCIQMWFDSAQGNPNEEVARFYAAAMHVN
# Sequence of TNFα and streptavidin immobilized FOL2R (P01375 77-233): as the sequence (P01375 77-233) above
# Procedure: Folate receptor-TNFα ternary complex SPR assays were conducted on a Biacore 8K instrument (Cytiva) using biotinylated folate receptor beta (Acro Biosystems). Folate receptor was immobilized at -1800 RU on a streptavidin chip (Cytiva) in 10 mM HEPES pH 7.5, 150 mM NaCl, 0.05% Tween 20. Untagged TNF was preincubated with 10 nM compound for 6 hr in 10 mM HEPES pH 7.5, 150 mM NaCl, 0.05 Tween 20, 2% DMSO at 25° C. Samples were then injected over the folate receptor surface at 30 μl/min with an association time of 110 s and a dissociation time of 600 s. Surfaces were regenerated with 4 M MgCl2 at 30 μl/mm for 30 s. The maximum measured response was normalized by comparison to the maximum expected response for each compound.
# [4] = target: T1, folate receptor beta; assay: Folate receptor SPR assay (biotinylated folate receptor beta on streptavidin chip); type: binding; details: for Rmax: biotinylated folate receptor beta on streptavidin chip; for kd / Kd / kon: multi-cycle kinetics, 25° C., 1:1 model; for Kd: read-out: FOLR2Biotin - SPR Kd; for kon: pH 7.5, read-out: ka
# Procedure: Folate receptor SPR binding assays were conducted on a Biacore 8K instrument (Cytiva) using biotinylated folate receptor beta (Acro Biosystems). Briefly, folate receptor was immobilized at -550 RU on a streptavidin chip (Cytiva) in 10 mM HEPES pH 7.5, 150 mM NaCl, 0.05% Tween 20. Multi-cycle kinetic studies were conducted with 8 compound concentrations using 2-fold dilutions in 10 mM HEPES pH 7.5, 150 mM NaCl, 0.05% Tween 20, 2% DMSO at 25° C. A flow rate or 75 μl/mmn with an association time of 120 s and a dissociation time of 600 s were used. Surfaces were regenerated with 4 M MgCl2 at 30 μl/min for 30 s. Data were fit to a 1:1 model to determine the reported binding parameters.
# T1 sequence (P14207 17-255): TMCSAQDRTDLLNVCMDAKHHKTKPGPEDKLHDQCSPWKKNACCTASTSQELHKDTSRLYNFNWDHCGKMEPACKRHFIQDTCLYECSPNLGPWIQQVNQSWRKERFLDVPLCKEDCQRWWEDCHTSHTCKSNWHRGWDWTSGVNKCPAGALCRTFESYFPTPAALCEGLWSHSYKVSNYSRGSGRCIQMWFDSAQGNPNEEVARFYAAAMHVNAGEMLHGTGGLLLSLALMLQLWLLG
Compound,IC50 [1] [nM],IC50 [2] [nM],TC 150 nM- tagless TNF Normalized [3] [%],TC 300 nM- tagless TNF Normalized [3] [%],Rmax [4] [RU],kd [4] [s⁻¹],Kd [4] [nM],kon [4] [M⁻¹ s⁻¹],TC 60 nM taggless TNF normalized ([3]; 60 nM untagged TNF) [%]
"Cc1nc2cc(F)c(-c3cnc(N4CCN(C(=O)COCCn5cc(CCCN6CCC7(CC6)CCN(C(=O)CC[C@H](NC(=O)c6ccc(NCc8cnc9nc(N)nc(O)c9n8)cc6)C(=O)O)CC7)nn5)CC4)nc3)nc2c(N[C@H](C)c2cc(C#N)ccc2F)c1Cl [Compound I-90, (S)-2-(4-(((2-amino-4-hydroxypteridin-6-yl)methyl)amino)benzamido)-5-(9-(3-(1-(2-(2-(4-(5-(7-chloro-8-(((R)-1-(5-cyano-2-fluorophenyl)ethyl)amino)-3-fluoro-6-methyl-1,5-naphthyridin-2-yl)pyrimidin-2-yl)piperazin-1-yl)-2-oxoethoxy)ethyl)-1H-1,2,3-triazol-4-yl)propyl)-3,9-diazaspiro[5.5]undecan-3-yl)-5-oxopentanoic acid]",4.4,7.6,20.4,20.6,13.3,0.00013,0.00496,2.62e+07,–
"Cc1nc2cc(F)c(-c3cnc(N4CCN(C(=O)COCCn5cc(CN(CCO)CCOCCOCCOCCNC(=O)CC[C@H](NC(=O)c6ccc(NCc7cnc8nc(N)nc(O)c8n7)cc6)C(=O)O)nn5)CC4)nc3)nc2c(N[C@H](C)c2cc(C#N)ccc2F)c1Cl [Compound I-93, (S)-19-(4-(((2-amino-4-hydroxypteridin-6-yl)methyl)amino)benzamido)-3-((1-(2-(2-(4-(5-(7-chloro-8-(((R)-1-(5-cyano-2-fluorophenyl)ethyl)amino)-3-fluoro-6-methyl-1,5-naphthyridin-2-yl)pyrimidin-2-yl)piperazin-1-yl)-2-oxoethoxy)ethyl)-1H-1,2,3-triazol-4-yl)methyl)-1-hydroxy-16-oxo-6,9,12-trioxa-3,15-diazaicosan-20-oic acid]",6.6,18,16.1,18.2,17.7,0.000178,0.0109,1.63e+07,–
"Cc1nc2cc(F)c(-c3cnc(N4CCN(C(=O)COCCn5cc(CN(C)CCOCCOCCOCCNC(=O)CC[C@H](NC(=O)c6ccc(NCc7cnc8nc(N)nc(O)c8n7)cc6)C(=O)O)nn5)CC4)nc3)nc2c(N[C@H](C)c2cc(C#N)ccc2F)c1Cl [Compound I-94, (S)-18-(4-(((2-amino-4-hydroxypteridin-6-yl)methyl)amino)benzamido)-1-(1-(2-(2-(4-(5-(7-chloro-8-(((R)-1-(5-cyano-2-fluorophenyl)ethyl)amino)-3-fluoro-6-methyl-1,5-naphthyridin-2-yl)pyrimidin-2-yl)piperazin-1-yl)-2-oxoethoxy)ethyl)-1H-1,2,3-triazol-4-yl)-2-methyl-15-oxo-5,811-trioxa-2,14-diazanonadecan-19-oic acid]",9.3,22,16.3,18.5,15.4,0.000169,0.0194,8.72e+06,–
"Cc1nc2cc(F)c(-c3cnc(N4CCN(C(=O)COCCn5cc(COCCOCCOCCN6CCN(C(=O)CC[C@H](NC(=O)c7ccc(NCc8cnc9nc(N)nc(O)c9n8)cc7)C(=O)O)CC6)nn5)CC4)nc3)nc2c(N[C@H](C)c2cc(C#N)ccc2F)c1Cl [Compound I-95, (S)-2-(4-(((2-amino-4-hydroxypteridin-6-yl)methyl)amino)benzamido)-5-(4-(2-(2-(2-((1-(2-(2-(4-(5-(7-chloro-8-(((R)-1-(5-cyano-2-fluorophenyl)ethyl)amino)-3-fluoro-6-methyl-1,5-naphthyridin-2-yl)pyrimidin-2-yl)piperazin-1-yl)-2-oxoethoxy)ethyl)-1H-1,2,3-triazol-4-yl)methoxy)ethoxy)ethoxy)ethyl)piperazin-1-yl)-5-oxopentanoic acid]",11,26,17.3,18.6,14.8,0.000337,0.0215,1.56e+07,–
"Cc1nc2cc(F)c(-c3cnc(N4CCN(C(=O)COCCn5cc(COCCOCCOCCOCCNC(=O)CCCNC(=O)c6ccc(NCc7cnc8nc(N)nc(O)c8n7)cc6)nn5)CC4)nc3)nc2c(N[C@H](C)c2cc(C#N)ccc2F)c1Cl [Compound I-96, (R)-4-(((2-amino-4-hydroxypteridin-6-yl)methyl)amino)-N-(1-(1-(2-(2-(4-(5-(7-chloro-8-((1-(5-cyano-2-fluorophenyl)ethyl)amino)-3-fluoro-6-methyl-1,5-naphthyridin-2-yl)pyrimidin-2-yl)piperazin-1-yl)-2-oxoethoxy)ethyl)-1H-1,2,3-triazol-4-yl)-15-oxo-2,5,8,11-tetraoxa-14-azaoctadecan-18-yl)benzamide]",20,56,17.1,19.2,17.1,0.00129,0.101,1.27e+07,12.3
"Cc1nc2cc(F)c(-c3cnc(N4CCN(C(=O)COCCn5cc(COCCOCCOCCOCCNC(=O)CC[C@H](NC(=O)c6ccc(SCCc7cc8c(=O)[nH]c(N)nc8[nH]7)cc6)C(=O)O)nn5)CC4)nc3)nc2c(N[C@H](C)c2cc(C#N)ccc2F)c1Cl [Compound I-98, (S)-18-(4-((2-(2-amino-4-oxo-4,7-dihydro-3H-pyrrolo[2,3-d]pyrimidin-6-yl)ethyl)thio)benzamido)-1-(1-(2-(2-(4-(5-(7-chloro-8-(((R)-1-(5-cyano-2-fluorophenyl)ethyl)amino)-3-fluoro-6-methyl-1,5-naphthyridin-2-yl)pyrimidin-2-yl)piperazin-1-yl)-2-oxoethoxy)ethyl)-1H-1,2,3-triazol-4-yl)-15-oxo-2,5,8,11-tetraoxa-14-azanonadecan-19-oic acid]",133,19,16.7,19.4,14.8,0.000774,0.172,4.49e+06,–
